# In ChEMBL document CHEMBL5143579, “Aulosirazoles B and C from the Cyanobacterium Nostoc sp. UIC 10771: Analogues of an Isothiazolonaphthoquinone Scaffold that Activate Nuclear Transcription Factor FOXO3a in Ovarian Cancer Cells” (J Nat Prod, 2022):
# Activity calls are given as the source filed them. No cut-off for these calls is given here.
# What was measured:
# [1] = tested on: OVCAR-3; experiment: Cytotoxicity against human OVCAR-3 cells assessed as inhibition of cell growth incubated for 72 hrs by CellTiter-Blue cell viability assay; type: functional, cell-based; settings: OVCAR-3, 72 h
# [2] = biological target: Forkhead box protein O3 (Homo sapiens) (UniProt O43524); experiment: Transactivation of FOXO3a in human OVACAR-3 cells assessed as nuclear accumulation of FOXO3a at 2 uM incubated for 3 hrs by western blot analysis; type: cell-based; settings: OVCAR-3, filed as activator
# Sequence of Forkhead box protein O3 (Homo sapiens) (O43524 whole entry): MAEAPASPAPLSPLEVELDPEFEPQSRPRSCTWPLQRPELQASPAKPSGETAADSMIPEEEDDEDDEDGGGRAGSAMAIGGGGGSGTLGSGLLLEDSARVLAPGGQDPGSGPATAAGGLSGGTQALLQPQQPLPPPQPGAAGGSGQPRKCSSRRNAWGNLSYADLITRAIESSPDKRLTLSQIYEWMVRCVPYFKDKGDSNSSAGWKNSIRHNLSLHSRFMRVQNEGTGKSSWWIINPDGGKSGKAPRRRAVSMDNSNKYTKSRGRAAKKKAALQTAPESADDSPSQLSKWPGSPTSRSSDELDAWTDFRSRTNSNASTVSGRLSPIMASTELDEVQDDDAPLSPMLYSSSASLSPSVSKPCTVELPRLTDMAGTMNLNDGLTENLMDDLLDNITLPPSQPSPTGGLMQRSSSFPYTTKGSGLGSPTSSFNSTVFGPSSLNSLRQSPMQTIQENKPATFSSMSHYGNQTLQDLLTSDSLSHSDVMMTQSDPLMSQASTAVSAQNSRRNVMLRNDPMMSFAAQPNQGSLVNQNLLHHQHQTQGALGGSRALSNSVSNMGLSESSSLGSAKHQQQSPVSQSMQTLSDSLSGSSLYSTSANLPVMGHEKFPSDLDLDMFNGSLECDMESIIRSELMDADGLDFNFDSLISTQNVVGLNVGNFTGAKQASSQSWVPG
# [3] = biological target: Forkhead box protein O3 (Homo sapiens) (UniProt O43524); experiment: Activation of FOXO3a in human OVACAR-3 cells assessed as nuclear accumulation of FOXO3a at 2 uM incubated for 3 hrs by DAPI staining based immunofluorescence assay; type: cell-based; settings: OVCAR-3, filed as activator
# [4] = biological target: Forkhead box protein O3 (Homo sapiens) (UniProt O43524); experiment: Activation of FOXO3a in human OVACAR-3 cells assessed as cytosolic localization of FOXO3a at 2 uM incubated for 3 hrs by DAPI staining based immunofluorescence assay; type: cell-based; settings: OVCAR-3, filed as activator
# [5] = biological target: Forkhead box protein O3 (Homo sapiens) (UniProt O43524); experiment: Transactivation of FOXO3a in human OVACAR-3 cells assessed as increase in nuclear accumulation of FOXO3a at 1 uM incubated for 24 hrs by western blot analysis; type: cell-based; settings: OVCAR-3, filed as activator
# [6] = biological target: Forkhead box protein O3 (Homo sapiens) (UniProt O43524); experiment: Transactivation of FOXO3a in human OVACAR-3 cells assessed as decrease in cytosolic concentration of FOXO3a at 1 uM for 3 hrs by western blot analysis; type: cell-based; settings: OVCAR-3, filed as activator
# [7] = biological target: Forkhead box protein O3 (Homo sapiens) (UniProt O43524); experiment: Activation of FOXO3a in human OVACAR-3 cells assessed as increase in nuclear accumulation of FOXO3a at 1 uM incubated for 3 hrs by DAPI staining based immunofluorescence assay; type: cell-based; settings: OVCAR-3, filed as activator
# [8] = biological target: Forkhead box protein O3 (Homo sapiens) (UniProt O43524); experiment: Activation of FOXO3a in human OVACAR-3 cells assessed as decrease in cytosolic localization of FOXO3a at 1 uM incubated for 3 hrs by DAPI staining based immunofluorescence assay; type: cell-based; settings: OVCAR-3, filed as activator
smiles,measurement,setting,value
O=c1cc(N2CCOCC2)oc2c(-c3ccccc3)cccc12 [LY-294002],IC50,[1],9190 nM
same,Activity,[2],Active
same,Activity,[3],Active
same,Activity,[4],Active
COc1nsc2c1C(=O)c1c(O)cccc1C2=O,IC50,[1],301 nM
same,Activity,[5],Active
same,Activity,[6],Active
same,Activity,[7],Active
same,Activity,[8],Active
COc1nsc2c1C(=O)c1ccccc1C2=O,IC50,[1],600 nM
COc1nsc2c1C(=O)c1c(O)ccc(C(=O)O)c1C2=O,IC50,[1],3030 nM
